Paper doi:10.1101/2025.04.19.649632v1 (biorxiv, 2025)
Where two headings read alike, the source gives them in different places.

Legend:
[1] = target: T1, USP32 FL (USP32FL, USP32WT) (Homo sapiens, UniProt Q8NFA0); type: biochemical; conditions: 500 nM UbRhoMP, pH 7.6, 1 mM TCEP, RT; covalent
[2] = target: T1, USP32 FL (USP32FL, USP32WT); test: biochemical; conditions: read-out: kinact (s^-1)
[3] = target: T1, USP32 FL (USP32FL, USP32WT); conditions: read-out: Ki; covalent
[4] = target: T1, USP32 FL (USP32FL, USP32WT); test: UbRhoMP fluorescence intensity assay, […] min preincubation; type: biochemical

T1 sequence (Q8NFA0 whole entry): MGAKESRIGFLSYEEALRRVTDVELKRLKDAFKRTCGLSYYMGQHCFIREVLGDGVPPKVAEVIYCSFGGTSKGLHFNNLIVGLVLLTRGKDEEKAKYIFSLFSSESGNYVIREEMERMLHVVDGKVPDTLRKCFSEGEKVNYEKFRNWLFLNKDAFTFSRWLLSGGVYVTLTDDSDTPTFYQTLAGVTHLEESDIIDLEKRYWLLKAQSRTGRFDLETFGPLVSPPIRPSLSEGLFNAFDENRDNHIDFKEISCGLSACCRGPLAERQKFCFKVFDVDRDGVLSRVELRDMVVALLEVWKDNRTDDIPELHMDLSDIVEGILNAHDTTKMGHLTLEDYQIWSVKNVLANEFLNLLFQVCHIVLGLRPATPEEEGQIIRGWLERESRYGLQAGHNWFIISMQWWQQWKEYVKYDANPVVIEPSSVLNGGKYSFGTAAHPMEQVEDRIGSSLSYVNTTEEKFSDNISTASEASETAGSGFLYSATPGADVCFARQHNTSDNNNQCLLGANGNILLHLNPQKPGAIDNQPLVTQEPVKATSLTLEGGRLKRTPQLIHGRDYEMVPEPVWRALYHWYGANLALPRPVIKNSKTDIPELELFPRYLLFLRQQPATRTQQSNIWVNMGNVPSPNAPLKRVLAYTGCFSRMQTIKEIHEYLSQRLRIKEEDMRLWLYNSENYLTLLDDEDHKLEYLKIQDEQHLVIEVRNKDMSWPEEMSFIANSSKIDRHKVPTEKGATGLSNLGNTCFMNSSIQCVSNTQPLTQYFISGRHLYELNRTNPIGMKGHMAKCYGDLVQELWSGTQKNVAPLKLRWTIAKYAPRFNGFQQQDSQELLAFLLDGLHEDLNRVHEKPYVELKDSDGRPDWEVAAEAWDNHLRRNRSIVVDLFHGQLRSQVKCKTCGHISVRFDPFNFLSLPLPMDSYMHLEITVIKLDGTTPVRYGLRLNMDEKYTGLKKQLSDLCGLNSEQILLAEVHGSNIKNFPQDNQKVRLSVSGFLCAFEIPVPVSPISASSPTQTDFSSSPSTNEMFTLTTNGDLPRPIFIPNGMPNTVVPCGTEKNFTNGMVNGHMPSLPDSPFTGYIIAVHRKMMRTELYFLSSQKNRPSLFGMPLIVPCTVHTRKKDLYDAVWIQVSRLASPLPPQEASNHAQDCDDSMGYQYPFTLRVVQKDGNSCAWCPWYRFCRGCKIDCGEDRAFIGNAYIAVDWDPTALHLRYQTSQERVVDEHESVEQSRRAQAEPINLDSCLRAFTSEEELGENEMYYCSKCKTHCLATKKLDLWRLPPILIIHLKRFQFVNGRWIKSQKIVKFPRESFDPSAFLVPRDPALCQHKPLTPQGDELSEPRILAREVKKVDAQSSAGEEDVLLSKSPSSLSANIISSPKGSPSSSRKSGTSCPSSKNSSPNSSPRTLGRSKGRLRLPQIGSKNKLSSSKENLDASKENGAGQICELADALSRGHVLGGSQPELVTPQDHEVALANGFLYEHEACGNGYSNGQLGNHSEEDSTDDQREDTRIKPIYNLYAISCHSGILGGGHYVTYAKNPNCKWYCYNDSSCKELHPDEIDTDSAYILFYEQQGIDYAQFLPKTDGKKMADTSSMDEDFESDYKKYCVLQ

kinact/Ki [1]	kinact [2] [s⁻¹]	KI (inactivation) [3] [µM]	IC50 [4] [µM]	IC50 ([4]; 500 nM UbRhoMP, pH 7.6, 1 mM TCEP, RT, covalent) [µM]	Structure (SMILES)
2,130 s^-1M^-1	0.000324	0.152	0.094		Cc1noc(C)c1S(=O)(=O)N1CCC(C(=O)N2CC3CC2CN3C#N)CC1 (centres unmarked) [BB12CA282]
			0.266		N#CN1CC[C@@H](NC(=O)C2CCN(S(=O)(=O)c3ccc(OCCn4cc(CNC(=O)CCCC[C@@H]5SC[C@@H]6NC(=O)N[C@@H]65)nn4)cc3)CC2)C1 [Huib32*2]
				0.412	CCN1/C(=C/C=C/C=C/C2=[N+](CCCCCC(=O)NCCCc3cn(CCOc4ccc(S(=O)(=O)N5CCC(C(=O)N[C@@H]6CCN(C#N)C6)CC5)cc4)nn3)c3ccc(S(=O)(=O)[O-])cc3C2(C)C)C(C)(C)c2cc(S(=O)(=O)O)ccc21 [Huib32*1]
			0.67		N#CN1CC[C@@H](NC(=O)C2CCN(S(=O)(=O)c3ccc(OCCN=[N+]=[N-])cc3)CC2)C1 [Huib32*]
219 s^-1M^-1	0.000984	4.49	0.518		Cc1noc(C)c1S(=O)(=O)N1CCC(C(=O)N2CCC3(CCN(C#N)C3)C2)CC1 (centres unmarked) [BB14CA282]
18,800 s^-1M^-1	0.000222	0.0118			Cc1noc(C)c1S(=O)(=O)N1CCC(C(=O)N[C@@H]2CCN(C#N)C2)CC1 [BB01CA282, Huib32]
